Experiment [1] deals with TRAF2 and NCK-interacting protein kinase (Homo sapiens) (UniProt Q9UKE5). Briefly: Selectivity interaction (LanthaScreen Eu Kinase Binding Assay) EUB0001632a TNIK. As to conditions: at 10 µM. A general note: In TR-FRET formats the signal depends on donor and acceptor labels being close together.
In experiment [2] the target is BMP-2-inducible protein kinase (Homo sapiens) (UniProt Q9NSY1). The experiment in a line: Selectivity interaction (KinomeScan (DiscoverX)) EUB0000595a BMP2K. The note with it: at 10 µM.
Experiment [3] addresses Serine/threonine-protein kinase WNK1 (Homo sapiens) (UniProt Q9H4A3). The experiment in a line: Selectivity interaction (KinomeScan (DiscoverX)) EUB0001619a WNK1. As to conditions: at 1 µM.
The target in experiment [4] is Microtubule-associated serine/threonine-protein kinase 1 (Homo sapiens) (UniProt Q9Y2H9). The experiment in a line: Selectivity interaction (KinomeScan (DiscoverX)) EUB0000695a MAST1. As to conditions: at 100 nM.
Experiment [5] has as its target Tyrosine-protein kinase Lyn (Homo sapiens, UniProt P07948). The experiment in a line: Selectivity interaction (SelectScreen profiling (Invitrogen)) EUB0000607a LYN. As to conditions: at 2 µM.
The target of experiment [6] is Serine/threonine-protein kinase 25 (Homo sapiens) (UniProt O00506). The note with it: at 10 µM.
In experiment [7] the target is Serine/threonine-protein kinase 38-like (Homo sapiens) (UniProt Q9Y2H1). Briefly: Selectivity interaction (ActivX KiNativ screen (kinase selectivity in THP-1 cell lysates)) EUB0000639a STK38L. Type of experiment: subcellular. As to conditions: lysate, at 1 µM.
The target in experiment [8] is T1, Serine/threonine-protein kinase Sgk3 (Homo sapiens) (UniProt Q96BR1).
T1 sequence (whole entry): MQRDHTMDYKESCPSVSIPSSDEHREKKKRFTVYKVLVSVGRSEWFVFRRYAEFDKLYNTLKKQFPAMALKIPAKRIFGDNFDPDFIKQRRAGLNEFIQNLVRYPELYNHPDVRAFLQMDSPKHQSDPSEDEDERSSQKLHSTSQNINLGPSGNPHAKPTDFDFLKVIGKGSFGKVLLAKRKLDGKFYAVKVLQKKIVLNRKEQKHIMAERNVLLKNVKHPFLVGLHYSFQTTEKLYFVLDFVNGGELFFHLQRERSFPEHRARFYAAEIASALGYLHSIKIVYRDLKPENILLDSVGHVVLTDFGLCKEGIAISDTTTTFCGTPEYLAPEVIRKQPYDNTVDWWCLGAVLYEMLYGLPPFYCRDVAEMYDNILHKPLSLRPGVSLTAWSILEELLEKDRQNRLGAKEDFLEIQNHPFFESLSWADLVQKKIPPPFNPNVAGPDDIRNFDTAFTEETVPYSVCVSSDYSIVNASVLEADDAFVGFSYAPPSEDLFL
Briefly: Selectivity interaction (ActivX KiNativ screen (kinase selectivity in THP-1 cell lysates)) EUB0000639a SGK3. As to conditions: lysate, at 5 µM. The class given is subcellular.

Experiment [9] addresses T2, Peripheral plasma membrane protein CASK (Homo sapiens) (UniProt O14936).
T2 sequence (whole entry): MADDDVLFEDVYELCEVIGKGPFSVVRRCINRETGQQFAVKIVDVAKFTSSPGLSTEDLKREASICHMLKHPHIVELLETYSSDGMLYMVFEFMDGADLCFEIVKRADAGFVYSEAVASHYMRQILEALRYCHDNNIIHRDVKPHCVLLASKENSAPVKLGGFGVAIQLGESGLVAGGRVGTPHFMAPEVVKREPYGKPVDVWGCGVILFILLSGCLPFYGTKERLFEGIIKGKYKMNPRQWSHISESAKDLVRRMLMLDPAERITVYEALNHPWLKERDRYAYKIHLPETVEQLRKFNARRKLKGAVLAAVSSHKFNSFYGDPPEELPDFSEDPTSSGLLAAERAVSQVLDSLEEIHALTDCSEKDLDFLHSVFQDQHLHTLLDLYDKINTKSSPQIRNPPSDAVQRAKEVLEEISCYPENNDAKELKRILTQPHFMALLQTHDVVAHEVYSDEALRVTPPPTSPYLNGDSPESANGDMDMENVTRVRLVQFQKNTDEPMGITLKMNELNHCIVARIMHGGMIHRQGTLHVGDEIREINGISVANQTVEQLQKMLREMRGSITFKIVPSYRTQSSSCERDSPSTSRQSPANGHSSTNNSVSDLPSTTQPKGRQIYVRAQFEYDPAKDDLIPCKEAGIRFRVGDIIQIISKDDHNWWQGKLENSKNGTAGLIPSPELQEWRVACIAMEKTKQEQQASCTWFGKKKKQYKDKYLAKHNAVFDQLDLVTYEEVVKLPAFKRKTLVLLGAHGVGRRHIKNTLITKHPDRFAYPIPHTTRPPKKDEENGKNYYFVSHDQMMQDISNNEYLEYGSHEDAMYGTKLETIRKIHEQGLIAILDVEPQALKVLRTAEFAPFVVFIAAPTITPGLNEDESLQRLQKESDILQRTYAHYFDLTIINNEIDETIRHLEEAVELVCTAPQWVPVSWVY
The experiment in a line: Selectivity interaction (Ambit KINOMEscan and KiNATiv profiling in Jurkat cells) EUB0000090b CASK. The class given is cell-based. The note with it: at 1 µM.

The target of experiment [10] is T3, Myotonin-protein kinase (Homo sapiens) (UniProt Q09013).
T3 sequence (whole entry): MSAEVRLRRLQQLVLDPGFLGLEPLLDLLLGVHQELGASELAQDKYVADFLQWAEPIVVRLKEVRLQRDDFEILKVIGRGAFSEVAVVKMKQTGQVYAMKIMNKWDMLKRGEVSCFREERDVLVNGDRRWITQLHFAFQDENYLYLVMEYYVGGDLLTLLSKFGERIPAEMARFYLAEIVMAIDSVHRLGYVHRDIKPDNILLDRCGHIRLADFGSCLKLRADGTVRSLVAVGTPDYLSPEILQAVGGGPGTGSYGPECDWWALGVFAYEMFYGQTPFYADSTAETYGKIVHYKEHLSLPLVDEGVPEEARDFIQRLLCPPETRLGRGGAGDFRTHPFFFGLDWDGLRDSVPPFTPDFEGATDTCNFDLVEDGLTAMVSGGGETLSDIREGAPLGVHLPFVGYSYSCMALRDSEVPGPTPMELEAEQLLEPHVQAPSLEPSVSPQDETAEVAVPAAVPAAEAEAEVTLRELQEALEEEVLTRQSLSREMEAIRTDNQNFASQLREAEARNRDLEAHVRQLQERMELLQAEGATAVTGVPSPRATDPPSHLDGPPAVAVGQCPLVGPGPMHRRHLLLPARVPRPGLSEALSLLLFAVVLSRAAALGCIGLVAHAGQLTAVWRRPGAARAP
Briefly: Selectivity interaction (KinomeScan (DiscoverX)) EUB0000229b DMPK. As to conditions: at 10 µM.

Each structure is given as a SMILES string.

Sequence of Serine/threonine-protein kinase 38-like (Homo sapiens) (Q9Y2H1 2-464 limits assumed): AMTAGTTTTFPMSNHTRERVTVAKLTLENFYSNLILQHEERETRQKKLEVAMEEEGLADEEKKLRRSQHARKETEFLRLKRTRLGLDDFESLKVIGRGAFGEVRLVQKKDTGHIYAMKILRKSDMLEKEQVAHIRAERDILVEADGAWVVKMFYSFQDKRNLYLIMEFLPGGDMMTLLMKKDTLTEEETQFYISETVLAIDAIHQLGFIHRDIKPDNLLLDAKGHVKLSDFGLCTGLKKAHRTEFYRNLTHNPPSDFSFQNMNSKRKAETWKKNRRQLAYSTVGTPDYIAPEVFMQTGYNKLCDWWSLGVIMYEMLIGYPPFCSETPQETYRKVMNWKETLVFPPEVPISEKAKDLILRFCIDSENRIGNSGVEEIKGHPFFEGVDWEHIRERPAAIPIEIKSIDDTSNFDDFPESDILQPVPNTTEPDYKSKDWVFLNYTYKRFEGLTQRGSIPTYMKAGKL
Sequence of Microtubule-associated serine/threonine-protein kinase 1 (Homo sapiens) (Q9Y2H9 whole entry, looked up): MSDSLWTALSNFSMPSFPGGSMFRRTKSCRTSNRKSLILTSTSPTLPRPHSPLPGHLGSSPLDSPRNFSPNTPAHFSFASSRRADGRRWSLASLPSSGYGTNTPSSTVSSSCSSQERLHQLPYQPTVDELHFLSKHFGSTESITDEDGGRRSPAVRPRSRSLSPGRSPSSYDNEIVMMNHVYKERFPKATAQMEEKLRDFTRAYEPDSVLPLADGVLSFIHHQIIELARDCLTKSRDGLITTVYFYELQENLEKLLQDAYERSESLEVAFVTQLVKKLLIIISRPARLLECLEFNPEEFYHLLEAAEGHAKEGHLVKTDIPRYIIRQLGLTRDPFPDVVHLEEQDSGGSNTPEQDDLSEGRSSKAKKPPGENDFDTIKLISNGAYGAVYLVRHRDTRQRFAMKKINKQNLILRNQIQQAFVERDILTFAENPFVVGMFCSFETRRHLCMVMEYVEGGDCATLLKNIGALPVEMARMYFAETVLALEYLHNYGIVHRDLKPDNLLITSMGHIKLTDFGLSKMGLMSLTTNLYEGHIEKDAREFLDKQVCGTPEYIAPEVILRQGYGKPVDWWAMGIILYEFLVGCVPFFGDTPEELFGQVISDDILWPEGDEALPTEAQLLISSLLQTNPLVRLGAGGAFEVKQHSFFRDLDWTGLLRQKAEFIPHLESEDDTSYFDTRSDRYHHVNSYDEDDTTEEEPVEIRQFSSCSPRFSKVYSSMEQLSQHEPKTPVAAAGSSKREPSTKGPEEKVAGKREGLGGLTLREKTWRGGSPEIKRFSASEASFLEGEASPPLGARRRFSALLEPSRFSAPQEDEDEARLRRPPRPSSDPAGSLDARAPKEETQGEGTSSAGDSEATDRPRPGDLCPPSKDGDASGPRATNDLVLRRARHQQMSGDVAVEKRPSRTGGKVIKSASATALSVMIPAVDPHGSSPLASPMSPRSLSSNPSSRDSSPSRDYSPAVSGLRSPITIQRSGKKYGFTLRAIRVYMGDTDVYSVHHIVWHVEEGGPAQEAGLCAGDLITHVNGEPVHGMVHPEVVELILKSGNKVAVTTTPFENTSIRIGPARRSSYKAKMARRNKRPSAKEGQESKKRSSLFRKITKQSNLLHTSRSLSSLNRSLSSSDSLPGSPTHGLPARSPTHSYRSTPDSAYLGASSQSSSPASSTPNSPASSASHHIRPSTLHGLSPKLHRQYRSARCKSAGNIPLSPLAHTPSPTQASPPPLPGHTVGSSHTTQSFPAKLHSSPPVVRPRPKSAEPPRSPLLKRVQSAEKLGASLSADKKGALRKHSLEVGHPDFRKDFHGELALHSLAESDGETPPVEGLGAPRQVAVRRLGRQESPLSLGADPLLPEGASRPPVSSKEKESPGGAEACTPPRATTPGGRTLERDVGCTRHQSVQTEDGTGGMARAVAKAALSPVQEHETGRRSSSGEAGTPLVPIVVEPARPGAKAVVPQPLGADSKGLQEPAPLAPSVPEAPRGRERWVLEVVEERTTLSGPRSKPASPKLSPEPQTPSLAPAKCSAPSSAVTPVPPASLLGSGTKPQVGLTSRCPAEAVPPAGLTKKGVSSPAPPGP
Sequence of BMP-2-inducible protein kinase (Homo sapiens) (Q9NSY1 whole entry, looked up): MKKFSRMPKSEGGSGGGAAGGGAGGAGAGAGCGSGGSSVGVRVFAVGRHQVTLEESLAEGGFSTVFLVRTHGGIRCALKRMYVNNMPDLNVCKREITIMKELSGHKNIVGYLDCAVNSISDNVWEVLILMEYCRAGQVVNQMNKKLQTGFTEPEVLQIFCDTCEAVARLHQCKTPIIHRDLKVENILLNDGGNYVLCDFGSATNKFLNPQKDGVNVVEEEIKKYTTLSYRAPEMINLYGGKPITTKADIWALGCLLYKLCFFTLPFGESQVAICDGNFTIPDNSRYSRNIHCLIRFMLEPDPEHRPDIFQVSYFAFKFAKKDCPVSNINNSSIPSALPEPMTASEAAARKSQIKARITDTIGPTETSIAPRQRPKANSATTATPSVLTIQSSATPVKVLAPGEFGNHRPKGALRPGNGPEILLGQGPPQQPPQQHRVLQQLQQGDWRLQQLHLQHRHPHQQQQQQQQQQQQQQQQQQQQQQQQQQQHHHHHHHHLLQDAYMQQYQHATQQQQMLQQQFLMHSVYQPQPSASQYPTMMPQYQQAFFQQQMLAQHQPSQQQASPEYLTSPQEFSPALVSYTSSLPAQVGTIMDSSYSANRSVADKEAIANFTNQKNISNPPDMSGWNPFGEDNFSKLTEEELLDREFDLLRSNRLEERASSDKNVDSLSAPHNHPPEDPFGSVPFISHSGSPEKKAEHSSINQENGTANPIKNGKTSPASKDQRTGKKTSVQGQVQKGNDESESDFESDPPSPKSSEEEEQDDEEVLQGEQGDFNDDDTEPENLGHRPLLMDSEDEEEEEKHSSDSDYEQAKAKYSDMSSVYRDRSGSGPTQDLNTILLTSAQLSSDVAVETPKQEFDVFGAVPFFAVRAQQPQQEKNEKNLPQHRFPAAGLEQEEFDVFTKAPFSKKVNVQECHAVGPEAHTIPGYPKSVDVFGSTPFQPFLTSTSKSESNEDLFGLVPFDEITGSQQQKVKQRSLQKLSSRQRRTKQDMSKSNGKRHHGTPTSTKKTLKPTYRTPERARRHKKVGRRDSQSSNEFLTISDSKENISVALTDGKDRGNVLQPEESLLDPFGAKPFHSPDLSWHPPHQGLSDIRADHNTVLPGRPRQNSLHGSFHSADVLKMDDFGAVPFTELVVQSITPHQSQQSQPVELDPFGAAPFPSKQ
Sequence of Serine/threonine-protein kinase 25 (Homo sapiens) (O00506 whole entry, looked up): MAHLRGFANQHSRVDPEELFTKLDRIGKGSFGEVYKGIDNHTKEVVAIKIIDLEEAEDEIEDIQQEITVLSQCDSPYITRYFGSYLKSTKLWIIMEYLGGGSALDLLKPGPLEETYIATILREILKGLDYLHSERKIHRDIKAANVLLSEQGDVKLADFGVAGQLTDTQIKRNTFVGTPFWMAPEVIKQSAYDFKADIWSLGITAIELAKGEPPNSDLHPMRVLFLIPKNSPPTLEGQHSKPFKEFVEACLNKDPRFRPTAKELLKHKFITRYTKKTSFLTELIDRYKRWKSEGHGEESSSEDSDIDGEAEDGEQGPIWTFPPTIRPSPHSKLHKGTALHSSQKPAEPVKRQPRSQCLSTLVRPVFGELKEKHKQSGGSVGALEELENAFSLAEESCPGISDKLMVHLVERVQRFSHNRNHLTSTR
Sequence of Tyrosine-protein kinase Lyn (P07948 2-512 limits assumed): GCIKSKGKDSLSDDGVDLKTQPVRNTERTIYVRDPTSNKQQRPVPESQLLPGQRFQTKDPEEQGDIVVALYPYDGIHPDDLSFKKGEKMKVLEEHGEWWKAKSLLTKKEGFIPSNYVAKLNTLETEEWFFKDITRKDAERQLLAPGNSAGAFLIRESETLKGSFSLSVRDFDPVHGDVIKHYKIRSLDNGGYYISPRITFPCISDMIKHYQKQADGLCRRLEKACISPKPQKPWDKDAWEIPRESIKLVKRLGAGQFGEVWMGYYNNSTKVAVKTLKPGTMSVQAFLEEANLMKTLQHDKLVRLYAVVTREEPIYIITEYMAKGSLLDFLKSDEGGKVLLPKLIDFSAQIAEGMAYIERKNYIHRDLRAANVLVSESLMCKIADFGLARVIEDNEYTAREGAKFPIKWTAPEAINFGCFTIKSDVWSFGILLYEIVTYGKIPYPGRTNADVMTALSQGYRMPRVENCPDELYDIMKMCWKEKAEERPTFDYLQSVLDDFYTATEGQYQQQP

Take `Cn1cc(-n2cnc3c(NCc4nc5cc(Cl)c(Cl)cc5[nH]4)nc(N4CCOCC4)nc32)cn1`: the % of inhibition in experiment [1] is -13.9%.

In experiment [2], `COCC(=O)NC/C=C/c1ccc2ncnc(Nc3ccc(Oc4ccc(C)nc4)c(C)c3)c2c1` [CP-724714] showed a % of control of 73%.

`N#Cc1cccc(-c2c[nH]c3ncnc(N4CCOCC4)c23)c1` came in with a % of control in experiment [3] of 100%.

In turn, `Cc1cc(F)c(C(=O)Nc2cccc(-c3nncn3C(C)C)n2)cc1-n1cnc(C2CC2)c1` gave a % of control in [4] of 87%.

As to `CNC(=O)Nc1ccc(-c2nc(N3CC4CCC(C3)O4)c3cnn(C4CCC5(CC4)OCCO5)c3n2)cc1`, the % of inhibition in experiment [5] was found to be 7%.

With `Cc1cc([C@@H](C)Nc2ccccc2C(=O)O)c2nc(N3CCOCC3)cc(=O)n2c1` [AZD-6482], the % of control in experiment [6] turned out to be 76%.

In the case of `CC[C@@H]1[C@H](F)C(=O)N[C@@H]1COc1nccc2cc(C(N)=O)c(OC)cc12` [ZIMLOVISERTIB], the values for the % of inhibition in experiment [7] and in [8] were 47.8% and -1.4%, respectively.

For `CN(C)C/C=C/C(=O)Nc1ccc(C(=O)N2CCCC(Nc3ncc(Cl)c(-c4c[nH]c5ccccc45)n3)C2)cc1` (stereo not given), the % of control in experiment [9] was found to be 90%.

In [10], `COc1cc(N(C)c2ccnc3ccc(C(F)(F)F)cc23)cc(OC)c1OC` had a % binding of 87%.

Source of the values: ChEMBL document CHEMBL5465560, “Selectivity Literature for EUbOPEN Chemogenomic Library” (2024).
